One compound from patent publication US20040214867A1, “Quaternary salts of n-substituted cyclic or acyclic amines as pharmaceuticals” (priority 2003, published 2004) can be followed below.

The structures appear in SMILES notation.

The test system of the test is citric acid-induced cough responses. Kind of test: Citric acid-induced cough in conscious guinea-pigs (aerosol pre-treatment). The format is in vivo, guinea-pig. The settings on record: aerosol 10.0 mg/ml immediately before exposure to citric acid (1M); compared with control (procaine) pre-treated guinea pigs; 15 minute observation period. From the text:
The following method is one of the general methods available to determine the antitussive activity of the compounds of the present invention.
Male albino Dunkin-Hartley strain guinea-pigs (weight 300-400 g) can be obtained from various commercial suppliers.
The method is a modification of that described by Adcock J. J., Schneider C. and Smith T. W., “Effects of Morphine and a Novel Opioid Pentapeptide BW443C, on Cough, Nociception and Ventilation in the Unanaesthetized Guinea-pig”, Br. J. Pharmacol., 93, 93-100 (1988). […]
Cylinder air is introduced into the exposure chamber at a flow rate of 1 liter/min maintained by a needle valve and monitored by a rotameter. […]
Cough responses are induced by exposure to an aerosol of citric acid (1M) for 10 minutes. Animals are continuously monitored by trained observer, and the number of coughs are counted during a 15 minute period from commencement of the citric acid aerosol administration. […]
The three types of response are differentiated primarily by sound and visual observation. […] Each cough is marked on the Grass polygraph paper trace, and from these record numbers, frequency and time of onset of coughs are determined. […]
Quantities of drugs are weighed out and dissolved in a vehicle. […] The sequence of pre-treatment administration is determined according to a 4×4 Latin Square design. […]

In the case of `CC[N+](C)(CC)CCOC(=O)c1ccc(N)cc1.[I-]` [N-methyl-procaine iodide, 2-[(4-Aminobenzoyl)oxy]-N,N-diethyl-N-methylethanaminium iodide], the “inhibition of cough responses” value was greater than 50%.
